Reference: the METLIN SMRT retention time set (Domingo-Almenara et al. 2019)

Experiment: gradient 5% acetonitrile 3 min, to 50% in 2 min, to 85% in 15 min, held 3 min, 100 µL/min
Settings: column: Zorbax Extend-C18 2.1 x 50 mm; eluents: water / acetonitrile, 0.1% formic acid
Procedure, shortened: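 Using water and acetonitrile that each contained 0.1% formic acid, mixtures of ~100 pure standards were separated at 100 μL/min on a Zorbax Extend-C18 column (2.1 × 50 mm, 1.8 μm). The HPLC fed a quadrupole time-of-flight mass spectrometer working in positive and negative ionization mode, with dead and dwell volumes of 40 μL and 900 μL. Data were acquired over 3 months. Retention time was read from computationally picked adduct peaks after manual inspection of each.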

Compound | RP-LC retention time
COC[C@@H]1CN(C(=O)c2cc(Cl)ccc2F)C[C@H]1C(N)=O | 611 s
CCc1cccc(NC(=O)Cn2c(C)nc3onc(C)c3c2=O)c1 | 861 s
CCn1c(=O)n(CC)c2cc(N3CCCC3)c(NC(=O)NCc3cccc(F)c3)cc21 | 654 s
COc1ccc(-c2cc3c4nn(CC(=O)N5CCCc6ccccc65)c(=O)n4ccn3n2)cc1 | 937 s
Cc1ccccc1-n1c(Cn2ncc3c(N)ncnc32)nc2cccc(C)c2c1=O | 719 s
CCOC(=O)c1c(S(=O)(=O)N2CCC(C(=O)Nc3ccccc3)CC2)c(C)n(CC)c1C | 795 s
O=C(NCc1ccccc1)C1c2ccccc2CC(=O)N1Cc1ccccc1 (stereo not drawn) | 850 s
Cc1ccc2nc(Nc3nc(C)cc(C(F)(F)F)n3)nc(C)c2c1 | 713 s
CCNC(=O)C1CCCN(c2nc3ncn(CC(=O)Nc4ccccc4Cl)c(=O)c3s2)C1 (stereo not drawn) | 664 s
COC(=O)Cn1nc2ccc(S(=O)(=O)N3CCSCC3)cn2c1=O | 711 s
CC(=O)Nc1ccc(-n2cnc(C(=O)N3CCN(c4ccc(C)cc4)CC3)c2)nc1 | 682 s
CC(C)CN1CCN(C(=O)c2ccc(-c3ccnc(N4CCCC4)n3)cc2)CC1 | 587 s
O=C(CCn1c(N2CCCC2)nc2ccsc2c1=O)N1CCN(c2ccccc2)CC1 | 814 s
Cc1c(NC(=O)C2CCN(S(=O)(=O)Cc3ccccc3)CC2)c(=O)n(-c2ccccc2)n1C | 672 s
Cc1ccc(N(Cc2nc3nc(C)c(Cl)c(C)n3n2)C(=O)c2ccco2)cc1 | 887 s
CC1CCN(C(=O)c2cc3c(s2)CCC(C(=O)N2CCOCC2)C3)CC1 (stereo not drawn) | 765 s
CCOc1ccc(CNc2nc3ccncc3n(C(C)C)c2=O)cc1OC | 584 s
CC(CNC(=O)c1cc2sc(Cl)cc2n1C)c1ccccc1 (stereo not drawn) | 1110 s
Cc1cccc(NC(=O)Cn2cnc(-c3nc(C)cs3)c2)c1 | 687 s
Cc1nc2cc(N3CC(C(=O)NCc4ccc(Br)cc4)CC3=O)ccc2o1 (stereo not drawn) | 761 s
O=C(Cn1c(=O)c2cccn2c2ccc(F)cc21)N1CCN(C(=O)c2ccco2)CC1 | 706 s
O=c1c2cnc3nc(-c4ccccc4Cl)nn3c2ccn1CCc1c[nH]c2ccccc12 | 950 s

Compound | RP-LC retention time
Cc1cc(C)cc(-c2nnc(Cc3nc(-c4ccc(Cl)cc4)no3)o2)c1 | 1230 s
O=C(Cn1nc(Cc2cccnc2)c2ccccc2c1=O)N1CCN(C(=O)c2ccco2)CC1 | 578 s
CCCN1C(=O)c2cc(C(=O)NCc3ccc(C)cc3)nn2CC1(C)C(=O)NC1CCCC1 (stereo not drawn) | 854 s
O=C(C1CC(=O)N(c2ccc3c(c2)CCN3C(=O)C2CC2)C1)N1CCCCCC1 (stereo not drawn) | 750 s
COc1ccc(C2CC(=O)N(c3ccc(OC)cc3)C(=O)C2)cc1 | 864 s
CCOc1ccc(S(=O)(=O)N2CCC(C(=O)N3CCCCCC3)CC2)cc1C | 951 s
Cc1cccc(NC(=O)Cn2nc(N3CCSCC3)c3ccccc3c2=O)c1 | 961 s
Cc1cc(=O)n(CC(=O)Nc2ccc(F)cc2C)c(N)n1 | 586 s
Cc1cccc(NC(=O)CSc2nnc3c4cc(-c5ccc(C)c(C)c5)nn4ccn23)c1 | 989 s
Cc1nc(-c2csc(S(=O)(=O)N3CCCC(C(=O)Nc4cccc5c4CCCC5)C3)c2)no1 (stereo not drawn) | 1110 s
Cc1ccc(CNS(=O)(=O)c2cc(-c3[nH]ncc3C(=O)N3CCCC3)oc2C)o1 | 674 s
COc1ccccc1C(=O)N1CCC2(CC1)NC(=O)c1cc(Cl)ccc1N2C | 787 s
N#Cc1ccsc1NC(=O)NC(c1ccccc1)c1ccccc1 | 947 s
CSc1ccc(-c2nc3cnccn3c2Nc2ccc3c(c2)OCO3)cc1 | 890 s
CCOc1ccc(-c2nc(CNC(=O)Nc3ccccc3OCC)c(C)o2)cc1 | 1080 s
COc1ccc(-c2cn3ccn(-c4cc(C)cc(C)c4)c(=O)c3n2)cc1 | 874 s
Cc1nn(CC(=O)NCCN2CCN(Cc3ccccc3)CC2)c(=O)c2noc(C)c12 | 576 s
CCc1ccccc1S(=O)(=O)N1C[C@H](F)C[C@@H]1C(=O)N1CCOCC1 | 740 s
COc1ccc(C(C)NC(=O)c2ccc3ncnc(N4CCCC4)c3c2)cc1 (stereo not drawn) | 646 s
COc1ccc(NC(=O)CCC2CCN(c3cc(NC4CC4)ncn3)CC2)c(C)c1 | 575 s
O=C(O)CCc1csc(NC(=O)Nc2ccc(Cl)cc2)n1 | 717 s
